The target in one data set is T1, OATP1B1 (Homo sapiens, UniProt Q9Y6L6).
T1 construct: expressed in transfected cells; host or cells: HEK293
T1 sequence (Q9Y6L6 1-691): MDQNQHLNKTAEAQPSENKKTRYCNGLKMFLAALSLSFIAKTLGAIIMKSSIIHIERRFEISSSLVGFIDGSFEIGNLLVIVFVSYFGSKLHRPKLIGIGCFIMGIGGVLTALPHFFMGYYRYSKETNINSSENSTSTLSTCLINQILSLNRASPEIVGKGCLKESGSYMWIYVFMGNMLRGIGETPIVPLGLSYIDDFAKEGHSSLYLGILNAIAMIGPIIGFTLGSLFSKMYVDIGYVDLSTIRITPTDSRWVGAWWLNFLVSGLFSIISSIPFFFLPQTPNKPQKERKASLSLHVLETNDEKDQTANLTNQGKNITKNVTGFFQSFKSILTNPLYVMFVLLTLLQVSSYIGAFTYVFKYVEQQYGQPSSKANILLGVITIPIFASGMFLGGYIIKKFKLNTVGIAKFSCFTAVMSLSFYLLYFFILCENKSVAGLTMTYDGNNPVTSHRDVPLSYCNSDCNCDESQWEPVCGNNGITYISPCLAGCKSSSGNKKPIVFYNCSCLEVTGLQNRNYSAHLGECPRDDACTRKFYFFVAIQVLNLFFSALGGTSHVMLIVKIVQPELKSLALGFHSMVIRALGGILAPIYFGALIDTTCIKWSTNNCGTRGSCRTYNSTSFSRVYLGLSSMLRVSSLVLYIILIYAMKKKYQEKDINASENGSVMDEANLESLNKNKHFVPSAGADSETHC
Put plainly: OATP1B1 transporter substrate uptake in OATP1B1-HEK293 cells. In kind it is in vitro ADME. The protocol: Protocol for identification of compounds that are substrates of transporters OATPIBI and OATPIB3. Transfected HEK293 and vector control HEK293 cells were cultured in 24-well poly-D-lysine or collagen-coated tissue culture plates ([…]) for 2 and 10 minutes respectively in transport buffer (HBSSg, pH 7.4, pre-warmed to 37° C.). At a defined time point, the uptake experiments were stopped by removing dosing solution followed by two washes of ice-cold HBSSg buffer. The cells were lysed for 2 minutes with 75% ACN containing an appropriate internal standard (when available). Lysis buffer were chilled to −20° C., and the plate was kept on ice during lysis. The cell lysate was transferred into a 96-well plate for sample analysis with LC-MS/MS analysis to determine concentration of test compound in cell lysate. The uptake of test compounds was normalized by total cell protein using the BCA Protein Assay Kit following the manufacturer's protocol. The inhibitor Rifamycin SV was used to block OATP1B1 and OATP1B3 transporter activity in order to determine uptake ratios.

Data set [1] relates to 18f-NLuc reporter virus (HM175/18f HAV). Nature of the data set: Antiviral activity against human hepatitis A virus, 18f-NLuc reporter virus in Huh-7 cells. Format: cell-based, Human Hepatitis A Virus (Hepatovirus A). The conditions noted are these: Hepatovirus A, Huh-7, 48 h, Huh-7 cells, 18f-NLuc virus, 48 hrs. As for the experimental part: Assay for Antiviral Activity Against Human Hepatitis A Virus (Hepatovirus A).
(§1) Assays for the anti-HAV activity of the hepatoselective DHQ compounds were carried out in Huh-7 human hepatoma cells using the 18f-NLuc reporter virus, which expresses nanoluciferase (NLuc) from sequence inserted into the polyprotein coding region of the HM175/18f HAV genome between the VP1pX and 2B coding sequences (Yamane et al., 2019). The method was modified minimally from that described by Misumi et al. for iminosugar compounds (Misumi et al., 2021). Cells (approximately […]) were plated in wells of a 96-well plate with Dulbecco's modified Eagle medium (DMEM) and 10% fetal bovine serum. The cells were inoculated 24 hrs later with 18f-NLuc virus (approximately 10^6-10^7 genome equivalents) in medium containing increasing concentrations of the compounds of interest. The cells were re-incubated for 48 hrs at 37° C. in a 5% CO2 environment, then lysed in 1× passive lysis buffer (Promega) for 15 min at room temperature. Cell lysates were transferred to an opaque white 96-well plate (Corning, 3912) and NLuc assay carried out using the NLuc GLOW Assay kit (Nanolight Technology). Luminescence was measured using a Biotek Synergy II multi-mode plate reader (BioTek Instruments). The percent inhibition of replication was calculated by determining the reduction in NLuc activity from that expressed by infected cells incubated in parallel in the absence of compound, and 50% inhibitory endpoints estimated by fitting the data to a four parameter variable slope logistic curve using Prism 9 for Mac OS software (GraphPad). Cell toxicity of the compounds was assessed using the WST-1 Cell Proliferation Reagent (Sigma-Aldrich) at the end of the treatment period in parallel cultures of uninfected cells, with WST-1 reagent added to cultures for 1 hr prior to harvest and O.D. reading.
as §1, with “Additional exemplary compounds of the present invention are evaluated for anti-HAV activity in accordance with certain assays described hereinabove. As discussed above, assays” for “Assays”, “10^6-107” for “10^6-10^7”

Molecules are shown by their SMILES.

In the case of `COc1cc2c(cc1OCCCCCCC(=O)O)C[C@@H](C(C)C)n1cc(C(=O)O)c(=O)cc1-2` [Example 6, (S)-9-((6-carboxyhexyl)oxy)-6-isopropyl-10-methoxy-2-oxo-6,7-dihydro-2H-pyrido[2,1-a]isoquinoline-3-carboxylic acid], the “Uptake Ratio (−/+Inhibitor)” value at OATP1B1 (OATP1B1-HEK293 cells, test concentration 1 μM, inhibitor Rifamycin SV) is given as 11.17. For the same compound, on OATP1B1 (OATP1B1-HEK293 vs mock HEK293, test concentration 1 μM), the “Uptake Ratio (Transporter(−Inhibitor)/Mock(−Inhibitor))” value is listed as 18.99. Besides, the half-maximal effective concentration (EC50) in data set [1] turned out to be 278 nM.

As usually defined, the EC50 is the concentration needed to bring the measured effect to its halfway point.

The values are drawn from patent US20260274836A1, “NOVEL HEPATOSELECTIVE POLYADENYLATING POLYMERASES INHIBITORS AND THEIR METHOD OF USE” (Baruch S. Blumberg Institute, priority 2022, published 2026).
